Experiment [1] concerns the target T1, full-length SHP2-E76K oncogenic mutant (Homo sapiens, UniProt Q06124, E76K).
T1 construct: Recombinant human full-length SHP2 (1–594) WT and E76K mutants; made in house
T1 sequence (Q06124 1-593 E76K): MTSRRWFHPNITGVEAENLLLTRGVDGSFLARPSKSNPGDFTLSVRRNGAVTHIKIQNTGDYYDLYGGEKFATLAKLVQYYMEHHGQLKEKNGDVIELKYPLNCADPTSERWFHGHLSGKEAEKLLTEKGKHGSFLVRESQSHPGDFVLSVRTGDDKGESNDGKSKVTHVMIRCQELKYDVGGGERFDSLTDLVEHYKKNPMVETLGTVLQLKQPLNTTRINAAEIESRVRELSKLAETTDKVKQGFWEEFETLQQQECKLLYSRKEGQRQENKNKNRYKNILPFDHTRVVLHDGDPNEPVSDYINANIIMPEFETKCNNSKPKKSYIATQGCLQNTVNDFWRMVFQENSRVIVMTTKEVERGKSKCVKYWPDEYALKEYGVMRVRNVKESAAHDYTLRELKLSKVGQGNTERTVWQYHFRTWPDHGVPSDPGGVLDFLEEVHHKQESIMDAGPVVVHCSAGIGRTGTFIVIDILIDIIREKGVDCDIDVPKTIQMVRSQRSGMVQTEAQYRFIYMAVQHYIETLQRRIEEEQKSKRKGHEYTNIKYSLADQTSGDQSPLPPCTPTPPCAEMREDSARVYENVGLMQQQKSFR
Briefly: DiFMUP fluorescence phosphatase inhibition assay, SHP2-E76K. Format: biochemical. Particulars: DiFMUP at Km (20 μM), 10-point dose–response, pH 6.0. The source says: To test the synthesized compounds for their potential to inhibit SHP2 activity, a fluorescence intensity-based assay using 6,8-difluoro-4-methylumbelliferyl phosphate (DiFMUP) as the substrate was adapted for three recombinant SHP2 constructs: (1) the SHP2 catalytic domain (SHP2cat; residues 248–527), (2) the full-length SHP2-E76K oncogenic mutant, and (3) the full-length SHP2 WT (SHP2-WT). The recombinant SHP2 proteins were expressed and purified as described previously ([36]). A dually phosphorylated peptide derived from the insulin receptor substrate 1 (IRS-1) served as a surrogate binding protein and was used to activate SHP2-WT ([30], [36]). […] Michaelis–Menten experiments to determine the DiFMUP Michaelis–Menten constant (Km) for each SHP2 construct were performed as described previously ([36]) and yielded the following values: SHP2-WT, Km = 60 μM; SHP2-E76K, Km = 20 μM; and SHP2cat, Km = 20 μM. Relative maximum rates (Vmax) of the DiFMUP reactions expressed as relative fluorescence units per minute (RFU/min) were as follows: SHP2-WT, Vmax = 871 RFU/min; SHP2-E76K, Vmax = 2730 RFU/min; and SHP2cat, Vmax = 2912 RFU/min. IC50 values for each compound were determined from initial rates in 10-point dose–response assays using DiFMUP at a concentration corresponding to its Km value for the respective SHP2 construct. […] Replacements for the benzothiophenone were explored using analog #10.
Recombinant human full-length SHP2 (1–594) WT and E76K mutants, as well as the SHP2cat (248–527), were expressed and purified as described before ([36], [41]). Recombinant human PTP1B (1–300) and the codon-optimized STEP (280–566) catalytic domains were cloned into PET-15b and expressed as N-His-tagged fusion proteins. For expression, transformed BL21(DE3) cells were grown and induced similar as described for SHP2. Collected cells were resuspended in lysis buffer (25 mM Tris, pH 7.5, 300 mM NaCl, 50 mM imidazole, and 10% glycerol) with 100 mg/l RNaseA and were lysed with two passages using a microfluidizer. The lysate was clarified by centrifugation at 15,000g for 50 min and applied to nickel–nitrilotriacetic acid resin. The column resin was washed, and the PTP1B or STEP protein was eluted in lysis buffer at 300 mM imidazole. The PTP1B or STEP protein was further purified by S75 size-exclusion chromatography in 50 mM Tris, pH 7.5, 50 mM NaCl. The eluted peak fractions were supplemented with tris(2-carboxyethyl)phosphine to 10 mM, concentrated by ultrafiltration, and stored at −80 °C. The purified yield of PTP1B was 33 mg/l cell culture; the yield of STEP was 16 mg/l cell culture.
SHP2 inhibitors were tested at RT in a 384-well plate format standard phosphatase fluorescence intensity assay using DiFMUP (Invitrogen/Thermo Fisher Scientific) as a substrate and a total reaction volume of 25 μl. SHP2 inhibitors or vehicle (DMSO) were spotted in triplicate into a black Greiner FLUOTRAC 200 384-well microplate (catalog no.: 781076; Greiner) for a 10-point dose–response assay using an Echo 555 Liquid Handler (Labcyte, Inc). PTP working solutions were prepared at a 0.625 nM concentration (for a final concentration of 0.5 nM) in buffer containing 50 mM Bis–Tris, pH 6.0, 50 mM NaCl, 5 mM DTT, and 0.01% Tween-20. Prior to the assay, a dually phosphorylated IRS-1 peptide (625 nM [500 nM final] ([30])) was added to full-length WT SHP2 working solutions and incubated for 20 min. DiFMUP working solutions at 5× final concentration were prepared in 50 mM Bis–Tris, pH 6.0, 50 mM NaCl, and 0.01% Tween-20. About 20 μl of PTP working solution was dispensed into the microplate and incubated with inhibitor for 20 min at RT. […] The reaction was initiated by addition of 5 μl DiFMUP working solutions. Fluorescence intensity was measured in kinetic mode (every minute for 7 or 10 min) using a Tecan Spark Multimode Microplate Reader (Tecan) with an excitation wavelength of 360 nm and an emission wavelength of 460 nm. […]

Experiment [2] relates to KYSE-520 esophageal cancer cells. The experiment is described as follows: Cell viability (CellTiter-Glo), KYSE-520. The format is cell-based. Particulars: for effect on KYSE-520 cell growth: various concentrations, 3 days. The method, then: Inhibition of SHP2 has been reported to inhibit the growth of cancer cells including Kasumi-1 acute myeloid leukemia (AML) and KYSE-520 esophageal cancer cells ([30]). […] Thus, we treated two TNBC cell lines, BT-549 and MDA-MB-468, with SBI-4668 or the SHP2 allosteric inhibitor SHP099 at various concentrations and determined cell viability after 72 h, compared with the vehicle control (Fig. 4C). […] Next, we performed an 11-day colony formation assay with TNBC cells treated with SBI-4668 or SHP099 at 5, 10, or 20 μM (Fig. 4D).
Viability of AML and esophageal carcinoma cells was assessed using the ATP-depletion assay CellTiter-Glo (Promega). Cells were harvested at 1 × 10^6/ml to 2 × 10^6 cells/ml with cell numbers determined by trypan blue using the Countess Cell counter (Thermo Scientific) and resuspended in culture media. About 3000 cells (in 20 μl) were seeded in a 384-well format white and clear-bottom microplate (catalog no.: 781098; Greiner) spotted with test compound or vehicle control (DMSO) using an Echo 555 Liquid Handler. Cells were incubated for 3 days, before 10 μl of CellTiter-Glo reagent mix was added to each well and incubated for 10 min at RT. Luminescence was read on a Tecan Spark Multimode Microplate Reader, and data were analyzed using GraphPad Prism software.

On to `O=C1CCCC1=Cc1ccc(-c2ccc(O)c(C(=O)Nc3ccccc3)c2)o1` [SBI-3192, 2-Hydroxy-5-(5-((2-oxocyclopentylidene)methyl)furan-2-yl)-N-phenylbenzamide], for which, in experiment [1], the IC50 was found to be 2.3 µM.
Regarding `O=C(Nc1ccccc1)c1cc(-c2ccc(/C=C3\Sc4ccccc4C3=O)o2)ccc1O` [SBI-4668, (Z)-2-Hydroxy-5-(5-((3-oxobenzo[b]thiophen-2(3H)-ylidene)methyl)furan-2-yl)-N-phenylbenzamide], the IC50 in experiment [1] is 1.8 µM; in experiment [2] (Homo sapiens, KYSE-520, 72 h, 3 days in culture) it was 5.4 µM. In experiment [2], the “effect on KYSE-520 cell growth” value is recorded as “dose-dependently inhibited cancer cell growth”.
In experiment [1], `N#Cc1cc(-c2ccc(/C=C3\Sc4ccccc4C3=O)o2)ccc1O` [SBI-3404, (Z)-2-Hydroxy-5-(5-((3-oxobenzo[b]thiophen-2(3H)-ylidene)methyl)furan-2-yl)benzonitrile] yielded an IC50 of 4.2 µM. Besides, in experiment [2], the “effect on KYSE-520 cell growth” value was “dose-dependently inhibited cancer cell growth”.
The compound `O=C1/C(=C/c2ccc(-c3ccc(O)c(-c4nn[nH]n4)c3)o2)Sc2ccccc21` [SBI-3405, (Z)-2-((5-(4-Hydroxy-3-(2H-tetrazol-5-yl)phenyl)furan-2-yl)methylene)benzo[b]thiophen-3(2H)-one] gave a half-inhibitory concentration (IC50) in experiment [1] of 4.1 µM.
In experiment [1], `Nc1ccc(NC(=O)c2cc(-c3ccc(/C=C4\Sc5ccccc5C4=O)o3)ccc2O)cc1` [SBI-2130, (Z)-N-(4-Aminophenyl)-2-hydroxy-5-(5-((3-oxobenzo[b]thiophen-2(3H)-ylidene)methyl)furan-2-yl)benzamide] displayed an IC50 of 0.48 µM. Also, the “effect on KYSE-520 cell growth” value in experiment [2] is given as “dose-dependently inhibited cancer cell growth”.
